Consider 31 molecules from patent US6743809B2, “Indole Derivatives useful for the treatment of CNS disorders” (H. Lundbeck A/S, priority 2000, dated 2004).

This assay concerns the target T1, human cloned dopamine D4.2 receptors (Homo sapiens, UniProt P21917, DEL265-296).
T1 construct: expressed in transfected cells; host or cells: CHO cells
T1 sequence (P21917 with tags, fused parts or gaps DEL265-296): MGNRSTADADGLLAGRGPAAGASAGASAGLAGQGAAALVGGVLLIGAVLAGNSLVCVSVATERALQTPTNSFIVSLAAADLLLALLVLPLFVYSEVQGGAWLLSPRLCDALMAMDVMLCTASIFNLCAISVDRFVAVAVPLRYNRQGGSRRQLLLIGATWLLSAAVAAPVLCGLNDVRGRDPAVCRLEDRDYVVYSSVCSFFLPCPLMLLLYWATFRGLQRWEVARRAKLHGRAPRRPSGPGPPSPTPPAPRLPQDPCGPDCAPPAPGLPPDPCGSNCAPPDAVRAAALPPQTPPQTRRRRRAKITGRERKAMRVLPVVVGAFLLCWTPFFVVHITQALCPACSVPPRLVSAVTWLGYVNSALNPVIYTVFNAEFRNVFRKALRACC
Briefly: Inhibition of the binding of [3H]YM-09151-2 to human dopamine D4 receptors. Conditions: 50 nM compound; [3H]YM-09151-2 0.06 nM; membranes of CHO-cells. The protocol:
Inhibition of the Binding of [^3H]YM-09151-2 to Human Dopamine D4 Receptors
By this method, the inhibition by drugs of the binding of [^3H]YM-09151-2 (0.06 nM) to membranes of human cloned dopamine D4.2 receptors expressed in CHO-cells is determined in vitro. The method is modified from NEN Life Science Products, Inc., technical data certificate PC2533-10/96.

Molecule `Cc1ccc(NC(=O)c2ccc(F)cc2)cc1CCN1CCC(c2c[nH]c3c(Cl)cccc23)CC1` [Compound 4e, 3-(1-{2-[5-(4-Fluorobenzoylamino)-2-methylphenyl]ethyl}piperidin-4-yl)-7-chloro-1H-indole] had an inhibition at 0.05 µM of 44%.

As to `Cc1ccc(NC(=O)c2ccccc2)cc1CCN1CCC(c2c[nH]c3c(Cl)cccc23)CC1` [Compound 4d, 3-(1-{2-[5-(benzoylamino)-2-Methylphenyl]ethyl}piperidin-4-yl)-7-chloro-1H-indole], the inhibition at 0.05 µM stood at 48%.

Consider `Cc1ccc(NC(=O)C(C)(C)C)cc1CCN1CCC(c2c[nH]c3ccc(F)cc23)CC1` [Compound 3g, 3-(1-{2-[2-Methyl-5-(pivaloylamino)phenyl]ethyl}piperidin-4-yl)-5-fluoro-1H-indole], for which the inhibition at 0.05 µM stood at 86%.

Turning to `Cc1ccc(NC(=O)c2cccs2)cc1CCN1CCC(c2c[nH]c3ccc(F)cc23)CC1` [Compound 3e, 3-(1-{2-[2-Methyl-5-(thiophen-2-ylmethanoylamino)phenyl]ethyl}piperidin-4-yl)-5-fluoro-1H-indole], the inhibition at 0.05 µM came out at 89%.

In turn, `Cc1ccc(NC(=O)C(C)C)cc1CCN1CCC(c2c[nH]c3cc(Cl)ccc23)CC1` [Compound 3q, 3-(1-{2-[5-(Isobutanoylamino)-2-methylphenyl]ethyl}piperidin-4-yl)-6-chloro-1H-indole] yielded an inhibition at 0.05 µM of 97%.

The molecule `Cc1ccc(NC(=O)c2ccsc2)cc1CCN1CCC(c2c[nH]c3c(Cl)cccc23)CC1` [Compound 4j, 3-[1-(2-{2-Methyl-5-[(thiophen-3-ylmethanoyl)amino]phenyl}ethyl)piperidin-4-yl]-7-chloro-1H-indole] showed an inhibition at 0.05 µM of 48%.

Molecule `Cc1ccc(NC(=O)c2ccncc2)cc1CCN1CCC(c2c[nH]c3c(Cl)cccc23)CC1` [Compound 4h, 3-[1-(2-{2-Methyl-5-[(pyridin-4-ylmethanoyl)amino]phenyl}ethyl)piperidin-4-yl]-7-chloro-1H-indole] returned an inhibition at 0.05 µM of 73%.

Regarding `Cc1ccc(NC(=O)Cc2ccccc2)cc1CCN1CCC(c2c[nH]c3c(Cl)cccc23)CC1` [Compound 3ae, 3-[1-(2-{5-[(2-Phenylethanoyl)amino]-2-methylphenyl}ethyl)piperidin-4-yl]-7-chloro-1H-indole], at 0.05 µM the inhibition was 89%.

With `CCCCCC(=O)Nc1ccc(C)c(CCN2CCC(c3c[nH]c4c(Cl)cccc34)CC2)c1` [Compound 3z, 3-(1-{2-[5-(Hexanoylamino)-2-methylphenyl]ethyl}piperidin-4-yl)-7-chloro-1H-indole], the inhibition at 0.05 µM turned out to be 91%.

In turn, `Cc1ccc(NC(=O)C2CC2)cc1CCN1CCC(c2c[nH]c3ccc(F)cc23)CC1` [Compound 3d, 3-(1-{2-[5-(Cyclopropylmethanoylamino)-2-methylphenyl]ethyl}piperidin-4-yl)-5-fluoro-1H-indole] showed an inhibition at 0.05 µM of 89%.

As to `Cc1ccc(NC(=O)C2CC2)cc1CCN1CCC(c2c[nH]c3cc(Cl)ccc23)CC1` [Compound 3o, 3-(1-{2-[5-(Cyclopropylmethanoylamino)-2-methylphenyl]ethyl}piperidin-4-yl)-6-chloro-1H-indole], the inhibition at 0.05 µM turned out to be 99%.

For the molecule `Cc1ccc(NC(=O)c2cccs2)cc1CCN1CCC(c2c[nH]c3c(Cl)cccc23)CC1` [Compound 4i, 3-[1-(2-{2-Methyl-5-[(thiophen-2-ylmethanoyl)amino]phenyl}ethyl)piperidin-4-yl]-7-chloro-1H-indole], 0.05 µM produced 85% inhibition.

Molecule `Cc1ccc(NC(=O)C2CC2)cc1CCN1CCC(c2c[nH]c3c(Cl)cccc23)CC1` [Compound 3ag, 3-(1-{2-[5-(Cyclopropylmethanoylamino)-2-methylphenyl]ethyl}piperidin-4-yl)-7-chloro-1H-indole] came in with an inhibition at 0.05 µM of 95%.

For `COc1cccc(C(=O)Nc2ccc(C)c(CCN3CCC(c4c[nH]c5cc(Cl)ccc45)CC3)c2)c1` [Compound 3r, 3-(1-{2-[5-(3-Methoxybenzoylamino)-2-methylphenyl]ethyl}piperidin-4-yl)-6-chloro-1H-indole], at 0.05 µM the inhibition was 88%.

`Cc1ccc(NC(=O)CCc2ccccc2)cc1CCN1CCC(c2c[nH]c3ccc(F)cc23)CC1` [Compound 3l, 3-(1-{2-[2-Methyl-5-(3-phenylpropanoylamino)phenyl]ethyl}piperidin-4-yl)-5-fluoro-1H-indole]: the inhibition at 0.05 µM was determined as 74%.

With `Cc1ccc(NC(=O)c2cccs2)cc1CCN1CCC(c2c[nH]c3cc(Cl)ccc23)CC1` [Compound 3p, 3-(1-{2-[2-Methyl-5-(thiophen-2-ylmethanoylamino)phenyl]ethyl}piperidin-4-yl)-6-chloro-1H-indole], the inhibition at 0.05 µM came out at 92%.

On to “3-(1-{2-[5-(Isobutanolamino)-2-methylphenyl]ethyl}piperidin-4-yl)-5-fluoro-1H-indole [Compound 3f]”, for which the “% inhibition of binding at 50 nM” value is listed as 96%.

Regarding `Cc1ccc(NC(=O)N2CCOCC2)cc1CCN1CCC(c2c[nH]c3ccc(F)cc23)CC1` [Compound 3x, 3-(1-{2-[2-Methyl-5-(morfolin-4-ylmethanoylamino)phenyl]ethyl}piperidin-4-yl)-5-fluoro-1H-indole], the “% inhibition of binding at 50 nM” value is 90%.

Turning to `Cc1ccc(NC(=O)c2cccnc2)cc1CCN1CCC(c2c[nH]c3cc(Cl)ccc23)CC1` [Compound 3s, 3-(1-{2-[2-Methyl-5-(pyridin-3-ylmethanoylamino)phenyl]ethyl}piperidin-4-yl)-6-chloro-1H-indole], the inhibition at 0.05 µM is 92%.

Consider `COc1ccc(C(=O)Nc2ccc(C)c(CCN3CCC(c4c[nH]c5c(Cl)cccc45)CC3)c2)cc1` [Compound 4f, 3-(1-{2-[5-(4-Methoxybenzoylamino)-2-methylphenyl]ethyl}piperidin-4-yl)-7-chloro-1H-indole], for which the inhibition at 0.05 µM was 48%.

For `Cc1ccc(NC(=O)N(C)c2ccccc2)cc1CCN1CCC(c2c[nH]c3cc(Cl)ccc23)CC1` [Compound 3n, 3-(1-{2-[2-Methyl-5-(3-Methyl-3-phenylureido)phenyl]ethyl}piperidin-4-yl)-6-chloro-1H-indole], the inhibition at 0.05 µM came to 76%.

Consider `COc1ccc(CC(=O)Nc2ccc(C)c(CCN3CCC(c4c[nH]c5cc(Cl)ccc45)CC3)c2)cc1` [Compound 3t, 3-[1-(2-{5-[2-(4-Methoxyphenyl)ethanoylamino]-2-methylphenyl}ethyl)piperidin-4-yl]-6-chloro-1H-indole], for which at 0.05 µM the inhibition was 75%.

As to `Cc1ccc(NC(=O)CCc2ccccc2)cc1CCN1CCC(c2c[nH]c3c(Cl)cccc23)CC1` [Compound 3ad, 3-[1-(2-{5-[(3-Phenylpropanoyl)amino]-2-methylphenyl}ethyl)piperidin-4-yl]-7-chloro-1H-indole], 0.05 µM produced 83% inhibition.

`Cc1ccc(C(=O)Nc2ccc(C)c(CCN3CCC(c4c[nH]c5c(Cl)cccc45)CC3)c2)cc1` [Compound 3af, 3-(1-{2-[2-Methyl-5-(4-methylbenzoylamino)phenyl]ethyl}piperidin-4-yl)-7-chloro-1H-indole] registered an inhibition at 0.05 µM of 90%.

Turning to `CCCCCC(=O)Nc1ccc(C)c(CCN2CCC(c3c[nH]c4ccc(F)cc34)CC2)c1` [Compound 3h, 3-(1-{2-[5-(Hexanoylamino)-2-methylphenyl]ethyl}piperidin-4-yl)-5-fluoro-1H-indole], at 0.05 µM the inhibition was 83%.

In the case of `Cc1ccc(C(=O)Nc2ccc(C)c(CCN3CCC(c4c[nH]c5ccc(F)cc45)CC3)c2)cc1` [Compound 3m, 3-(1-{2-[2-Methyl-5-(4-methylbenzoylamino)phenyl]ethyl}piperidin-4-yl)-5-fluoro-1H-indole], at 0.05 µM the inhibition was 81%.

As for `Cc1ccc(C(=O)Nc2ccc(C)c(CCN3CCC(c4c[nH]c5cc(Cl)ccc45)CC3)c2)cc1` [Compound 3u, 3-(1-{2-[2-Methyl-5-(4-methylbenzoylamino)phenyl]ethyl}piperidin-4-yl)-6-chloro-1H-indole], the inhibition at 0.05 µM turned out to be 86%.

As to `Cc1ccc(NC(=O)c2ccc(Cl)cc2)cc1CCN1CCC(c2c[nH]c3c(Cl)cccc23)CC1` [Compound 3ab, 3-(1-{2-[5-(4-Chlorobenzoylamino)-2-methylphenyl]ethyl}piperidin-4-yl)-7-chloro-1H-indole], 0.05 µM produced 79% inhibition.

For the molecule `Cc1ccc(NC(=O)C2CCCC2)cc1CCN1CCC(c2c[nH]c3cc(Cl)ccc23)CC1` [Compound 3v, 3-[1-(2-{5-[(Cyclopentylmethanoyl)amino]-2-methylphenyl}ethyl)piperidin-4-yl]-6-chloro-1H-indole], the inhibition at 0.05 µM was 95%.

The molecule `Cc1ccc(NC(=O)c2cccnc2)cc1CCN1CCC(c2c[nH]c3ccc(F)cc23)CC1` [Compound 3k, 3-(1-{2-[2-Methyl-5-(pyridin-3-ylmethanoylamino)phenyl]ethyl}piperidin-4-yl)-5-fluoro-1H-indole] registered an inhibition at 0.05 µM of 91%.

The molecule `COc1cccc(C(=O)Nc2ccc(C)c(CCN3CCC(c4c[nH]c5ccc(Cl)cc45)CC3)c2)c1` [Compound 3c, 3-(1-{2-[2-Methyl-5-(3-methoxybenzoylamino)phenyl]ethyl}piperidin-4-yl)-5-chloro-1H-indole] registered an inhibition at 0.05 µM of 68%.

By inhibition is commonly meant the drop in the measured response relative to a control, in per cent. High values mean a strong effect, low ones a weak effect.
